Assay results from patent US7550437B2, “Compositions for preventing and treating digestive organs diseases” (Fuso Pharmaceutical Industries, Ltd., priority 2000, dated 2009).
No end group written: not given here.

How the values were obtained:
PAR-2 = target: T1, PAR-2 (Homo sapiens, UniProt P55085); settings: literature statement; cited from earlier work
T1 sequence (P55085 26-397): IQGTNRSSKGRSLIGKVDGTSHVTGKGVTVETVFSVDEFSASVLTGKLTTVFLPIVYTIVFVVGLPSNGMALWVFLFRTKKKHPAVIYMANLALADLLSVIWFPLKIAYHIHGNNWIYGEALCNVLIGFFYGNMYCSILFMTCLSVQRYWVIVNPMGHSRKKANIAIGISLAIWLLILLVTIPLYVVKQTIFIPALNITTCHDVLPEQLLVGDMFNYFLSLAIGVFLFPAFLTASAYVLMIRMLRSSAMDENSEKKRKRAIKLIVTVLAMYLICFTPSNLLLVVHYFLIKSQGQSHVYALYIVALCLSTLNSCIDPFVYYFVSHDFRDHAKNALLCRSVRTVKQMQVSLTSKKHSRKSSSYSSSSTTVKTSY

[1] = test system: rat gastric mucosal cells; assay: Mucin secretion from rat gastric mucosal cells in vivo (galactose in gastric juice); settings: amastatin 2.5 μmol/kg i.v., FIG. 2
Description: The gastric pylorus was ligated by the same procedure as described above. Amastatin (2.5 μmol/kg) was administered intravenously immediately after the ligation, and SLp-NH2, LSp-NH2 or tcLP-NH2 was administered intravenously at 1 minute after administration of amastatin. 30 minutes after ligation, the rats was exsanguinated to kill, the stomach was isolated, and the gastric juice was collected. The collected sample of gastric juice was centrifuged at 10000×g for 30 min, and the supernatant was subjected to ultrafiltration with Millipore MC FREE (MW10000), followed by lyophilization. 2M TFA was added to the lyophilized sample, which was hydrolyzed under the conditions at 100° C. for 4 hours. Centrifugal separation was then performed and the supernatant was evaporated to dryness. 200 μL of 0.1 M Tris-HCl was added to the evaporated and dried sample to dissolve it. After 150 μL of a reaction solution containing galactose oxidase (1U), peroxidase (0.5 mU) and HPPA (0.25 μmol) was added to 50 μL of the sample and the mixture was incubated at 37° C. for 30 minutes, an amount of galactose was measured at an excitation wavelength of 320 nm and an fluorescence wavelength of 405 nm.

[2] = test system: gastric acid secretion accelerated by carbachol; assay: Carbachol-induced gastric acid secretion in pylorus-ligated rats; type: in vivo, rat; settings: carbachol 60 μg/kg s.c., amastatin 2.5 μmol/kg i.v., FIG. 1
Description: In an experiment, male Wistar rats at 5 weeks of age were used. After each animal was pre-bred for one week under the circumstance of a room temperature of 23±2° C., the humidity of 50±5%, and the light-and-darkness cycle (light term: from 07:00 to 19:00) of 12 hours, each animal was subjected to the experiment. Water and solid feed were supplied freely during the pre-breeding period and the experiment period.
Moreover, the number of animals used in the experiment was 4-14 animals in all cases, and the results were shown by Mean±Standard Error. The significant difference test was performed by Tukey's multiple comparison test.
A rat was anesthetized with ether after 18-24 hours of fasting, and an abdomen was incised by about 1 cm below a lower end of xiphoid sternum. Duodenum was pinched out of the opened abdominal hole, a part joining pylorus and duodenum was ligated, and the incised abdomen was sutured. After 30 minutes, the rat was exsanguinated to kill, the stomach was isolated, and gastric juice was collected. After the collected gastric juice was filtered, the acidity in the gastric juice was measured by a titration method. […]

[3] = test system: gastric mucosa lesion by ethanol; assay: Ethanol-induced gastric mucosa lesion; type: in vivo, rat; settings: 0.25 and 0.5 μmol/kg i.v. 5 min before 75% ethanol p.o.; amastatin 2.5 μmol/kg; FIG. 3
Description: (§1) Preparation of ethanol- and hydrochloric acid-ethanol-induced gastric mucosa lesion was performed according to the method of Robert et al. (Robert, A. et al., Gastroenteral, 77, 433-443, 1979). That is, after the rats were fasted for 18 to 24 hours, 1 mL of 75% ethanol or 60% ethanol containing 150 mM hydrochloric acid was administered orally. Rats were exsanguinated to kill after 60 min and their stomaches were isolated. The isolated stomach was incised along with greater curvature, washed and fixed with 10% formaldehyde, and an area of gastric mucosa lesion was measured using Image analyzing software, Mac acpect (Mitani corporation, Chiba prefecture). SLp-NH2 was administered intravenously at 5 minutes before administration of 75% ethanol or 60% ethanol containing 150 mM hydrochloric acid. Amastatin (2.5 μmol/kg) was administered at 1 minute before administration of SLp-NH2.

[4] = test system: lesion in gastric mucosa by hydrochloric acid-ethanol; assay: Hydrochloric acid-ethanol-induced gastric mucosa lesion; type: in vivo, rat; settings: 0.25 and 0.5 μmol/kg i.v. 5 min before 60% ethanol containing 150 mM hydrochloric acid p.o.; amastatin 2.5 μmol/kg; FIG. 4
Description: as §1

human PAR-1 = target: T2, human PAR-1 (Homo sapiens, UniProt P25116); settings: literature statement; cited from earlier work
T2 sequence (P25116 22-425): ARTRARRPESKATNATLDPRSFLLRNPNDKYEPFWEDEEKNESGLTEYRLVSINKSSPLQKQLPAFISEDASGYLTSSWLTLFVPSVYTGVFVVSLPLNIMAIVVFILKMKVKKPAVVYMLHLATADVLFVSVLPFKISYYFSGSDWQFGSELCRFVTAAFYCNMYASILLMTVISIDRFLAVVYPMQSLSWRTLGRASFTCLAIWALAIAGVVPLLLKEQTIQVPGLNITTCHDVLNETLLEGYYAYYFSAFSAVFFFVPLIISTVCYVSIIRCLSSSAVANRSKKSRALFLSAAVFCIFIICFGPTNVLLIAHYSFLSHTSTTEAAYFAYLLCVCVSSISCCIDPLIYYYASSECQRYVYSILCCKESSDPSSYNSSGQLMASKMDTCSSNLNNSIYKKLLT

## Leu-Ser-Ile-Gly-Arg-Leu-NH2 (LSIGRL-NH2) [LSp-NH2, control peptide for SLp-NH2]
PAR-2
  agonist activity on PAR-2: inactive substance
[1]; i.v., dose not given
  effect on mucin secretion from rat gastric mucosal cells: did not affect mucin secretion
[2]; 5 μmol/kg i.v.
  effect on gastric acid secretion accelerated by carbachol (amount of secreted gastric acid): did not affect

## Ser-Leu-Ile-Gly-Arg-Leu-NH2 (SLIGRL-NH2) [SLp-NH2]
[1]; 0.02 to 5 μmol/kg i.v.
  effect on mucin secretion from rat gastric mucosal cells: accelerated dose-dependently
[3]
  effect on gastric mucosa lesion (area) by ethanol: showed the protective effect
[4]
  effect on gastric mucosa lesion (area) by hydrochloric acid-ethanol: the protective effect was shown
[2]; 1.25 to 5 μmol/kg i.v.
  effect on gastric acid secretion accelerated by carbachol (amount of secreted gastric acid): inhibited dose-dependently

## Ser-Phe-Leu-Leu-Arg-NH2 (SFLLR-NH2) [SFp-NH2]
PAR-2
  agonist activity on PAR-2: week agonist activity on PAR-2
Human PAR-1
  agonist activity on human PAR-1: agonist activity on human PAR-1

## trans-cinnamoyl-Leu-Ile-Gly-Arg-Leu-ornithine-NH2 [tcLp-NH2]
PAR-2
  agonist activity on PAR-2: specifically activate PAR-2
[1]; i.v., dose not given
  effect on mucin secretion from rat gastric mucosal cells: also accelerated the mucin secretion
